Test results reported in PubChem BioAssay (NCI).
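Compound exposure: 48 hours, 5 concentrations, 96-well plates. TGI denotes the concentration required for complete inhibition of growth.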

Experiments:
Assay in all cases: NCI tumour cell line growth inhibition, 48 h
786-0 renal = tested on: 786-0 renal
A498 renal = tested on: A498 renal
A549 NSCLC = tested on: A549 NSCLC
CAKI-1 renal = tested on: CAKI-1 renal
CCRF-CEM leukemia = tested on: CCRF-CEM leukemia
DLD-1 colon = tested on: DLD-1 colon
DMS 114 small cell lung = tested on: DMS 114 small cell lung
DMS 273 small cell lung = tested on: DMS 273 small cell lung
EKVX NSCLC = tested on: EKVX NSCLC
HCT-116 colon = tested on: HCT-116 colon
HCT-15 colon = tested on: HCT-15 colon
HL-60(TB) leukemia = tested on: HL-60(TB) leukemia
HOP-18 NSCLC = tested on: HOP-18 NSCLC
HOP-62 NSCLC = tested on: HOP-62 NSCLC
HOP-92 NSCLC = tested on: HOP-92 NSCLC
HT29 colon = tested on: HT29 colon
IGROV1 ovarian = tested on: IGROV1 ovarian
K-562 leukemia = tested on: K-562 leukemia
KM12 colon = tested on: KM12 colon
KM20L2 colon = tested on: KM20L2 colon
LOX IMVI melanoma = tested on: LOX IMVI melanoma
LXFL 529 NSCLC = tested on: LXFL 529 NSCLC
M14 melanoma = tested on: M14 melanoma
M19-MEL melanoma = tested on: M19-MEL melanoma
MALME-3M melanoma = tested on: MALME-3M melanoma
MOLT-4 leukemia = tested on: MOLT-4 leukemia
NCI-H23 lung = tested on: NCI-H23 lung
NCI-H460 lung = tested on: NCI-H460 lung
NCI-H522 lung = tested on: NCI-H522 lung
OVCAR-3 ovarian = tested on: OVCAR-3 ovarian
OVCAR-5 ovarian = tested on: OVCAR-5 ovarian
OVCAR-8 ovarian = tested on: OVCAR-8 ovarian
RPMI-8226 leukemia = tested on: RPMI-8226 leukemia
RXF 393 renal = tested on: RXF 393 renal
SF-268 CNS = tested on: SF-268 CNS
SF-295 CNS = tested on: SF-295 CNS
SF-539 CNS = tested on: SF-539 CNS
SK-MEL-2 melanoma = tested on: SK-MEL-2 melanoma
SK-MEL-28 melanoma = tested on: SK-MEL-28 melanoma
SK-MEL-5 melanoma = tested on: SK-MEL-5 melanoma
SK-OV-3 ovarian = tested on: SK-OV-3 ovarian
SNB-19 CNS = tested on: SNB-19 CNS
SNB-78 CNS = tested on: SNB-78 CNS
SR leukemia = tested on: SR leukemia
SW-620 colon = tested on: SW-620 colon
TK-10 renal = tested on: TK-10 renal
U251 CNS = tested on: U251 CNS
UACC-257 melanoma = tested on: UACC-257 melanoma
UACC-62 melanoma = tested on: UACC-62 melanoma
UO-31 renal = tested on: UO-31 renal
XF 498 CNS = tested on: XF 498 CNS

Measured: TGI

CCCCCCc1cc2c(C)c(C)c(=O)oc2cc1OCCCOc1cc2oc(=O)c(C)c(C)c2cc1CCCCCC
> 100 µM: all assays above
